Test results taken from US6423519B1, “Compositions and methods for inhibiting fungal growth” (GPC Biotech Inc., priority 1998, dated 2002).
Read-outs that look alike come from different tables or passages of the source.

Columns and labels:
Hu FT = Hu FT (Homo sapiens, UniProt P49356); test: Human FT inhibition (Hu FT); type: biochemical; conditions: Table 3 Piperidine Analogs
C. albicans GGPTase = target: T1, C. albicans GGPTase (Candida albicans, UniProt Q8J224+Q9Y764); test: biochemical; conditions: read-out: IC50 (nM) Ca GG
T1 sequence (Q9Y764 1-398): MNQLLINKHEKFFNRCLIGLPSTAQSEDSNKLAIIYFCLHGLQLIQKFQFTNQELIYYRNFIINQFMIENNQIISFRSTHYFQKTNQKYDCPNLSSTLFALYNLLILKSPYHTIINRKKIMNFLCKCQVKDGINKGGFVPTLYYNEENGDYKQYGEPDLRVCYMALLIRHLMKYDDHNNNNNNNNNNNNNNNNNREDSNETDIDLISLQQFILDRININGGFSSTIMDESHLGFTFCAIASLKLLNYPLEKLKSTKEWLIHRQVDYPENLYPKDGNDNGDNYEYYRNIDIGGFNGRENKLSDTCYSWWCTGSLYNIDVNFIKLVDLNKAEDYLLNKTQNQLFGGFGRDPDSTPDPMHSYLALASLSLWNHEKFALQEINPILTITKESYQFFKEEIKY
T1 sequence (Q8J224 1-306): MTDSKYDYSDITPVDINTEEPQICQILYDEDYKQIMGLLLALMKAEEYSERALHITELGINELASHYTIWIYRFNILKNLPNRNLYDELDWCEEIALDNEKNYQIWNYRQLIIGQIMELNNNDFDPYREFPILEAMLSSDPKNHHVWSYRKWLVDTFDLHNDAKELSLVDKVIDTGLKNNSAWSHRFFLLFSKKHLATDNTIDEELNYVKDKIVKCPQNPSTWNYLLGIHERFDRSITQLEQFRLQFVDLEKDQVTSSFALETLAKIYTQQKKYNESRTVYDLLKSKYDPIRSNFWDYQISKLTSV
Method: Plate test compounds (10 μL per well) at predetermined concentration in 50% DMSO. For background control (blank) and reaction control (negative), add 10 μL of 200 μM GGPP and 10 μL 50% DMSO, respectively. Prepare assay buffer: 50 mM Tris, pH7.5, 20 mM KCL, 5 mM MgCl2, 5 μM ZnCl2, 0.5 mM Zw(3-14), 2 mM DTT and 0.1 mg/mL BSA.
Add 20 μL of C. albicans GGPTase and ^3H-GGPP in assay buffer to test compound. Preincubate enzyme and ^3H-GGPP with test compound for 15 minutes at room temperature. Add 20 μL C. albicans Rho in assay buffer. Incubate for 30 minutes at room temperature. Final assay conditions are 2 nM C. albicans GGPTase, 250 nM ^3H-GGPP and 250 nM C. albicans Rho.
Add 100 μL 15 mM GGPP, 50 mM Tris, pH7.0 and 2% BSA to quench reaction. Transfer reaction to Nickel chelate FlashPlate. Allow his-tagged C. albcians Rho to capture onto plate. Rinse plate 1× with 200 μL 20 mM Tris, pH7.0. Read in TOPCOUNT.

human GGTase = human GGTase (Homo sapiens, UniProt P53609); test: Human GGTase inhibition (Hu GG); type: biochemical; conditions: read-out: IC50 (nM) Hu GG
Source text: As described below, a variety of different compounds were synthesized and tested for inhibitory activity against human and Candida GGTase. Exemplary synthesis schemes for generating prenyltransferase inhibitors useful in the methods and compositions of the present invention are shown in FIGS. 1-56. Tables 1-5 provide Structure-Activity relationship (SAR) data for several different classes of prenyltransferase inhibitors.

Asp GG = Asp GG inhibition; type: biochemical
Cryp GG = Cryp GG inhibition; type: biochemical
C. albicans = test: In vitro susceptibility testing of compounds in C. albicans (MIC); type: cell-based; conditions: for MIC: Candida albicans, read-out: MIC (μg/mL) C alb; for MIC (μg/mL) C alb: Table 1
Method: 1: Innoculate strain C. albicans strain such as SC5314 into 20 mL of the appropriate medium and incubate at 35° C. with shaking (220 rpm) overnight
2: Count the C. albicans cells in a 1:10 dilution of the overnight culture using a haemocytometer.
3: Work out the dilution factor required to bring the cell number to 1×10^3 cells/100 μL (equivalent to 1×10^4 cells/mL) then add the required volume of the overnight culture to 25 mL media in a falcon tube.
4: Vortex the diluted cells and immediately pipette 100 μL of the cell suspension to each of the required rows of a 96 well plate using the multipipettor.
5: Prepare each of the 100×stock solutions for the compounds to be tested in DMSO in the required concentration range in Eppendorf tubes.
6: The dilution series for each of the compounds may now be prepared in sequence:
For each compound—start with highest dilution. Add 10 μL compound in DMSO to the 490 μL of appropriate media. Immediately vortex and add 100 μL to the appropraite row of cells on the 96-well plate. Repeat this process for the next and subsequent concentrations of this compound before starting on the dilution series for additional compounds.
7: When complete cover the 96-well plate with an acetate sheet and incubate at 35° C. Inspect visually and record results for both plates at the 24 hr and 48 hr. The MIC corresponds to the concentration of compound where no visible growth is observed.

IMR90 Cell Line = test: Cytotoxicity of GGPTase inhibitors in human cells, IMR90 (MTT); type: cell-based; conditions: IMR-90, 168 h, read-out: IC50 (nM) IMR90
Method: (§1) (A) Plate out cells at predetermined concentration in a volume of 150 μl.
(§2) (B) Allow cells to adhere to plate for twenty four hours
(§3) (C) Add compounds to cells at predetermined concentration (62.5 μg/mL down four-fold, 8 dilutions) n=2
(§4) (D) Cells are exposed to drug for 7 days for the IMR90 Cell Line, and a period of 3 days for the H460 Cell Line.
2. IMR90 Cells have 3-{4,5-Dimethylthiazol-2-yl}-2,5-diphenyltetrazolium bromide (MTT) added to them for three hours prior to final read out. After the three hours, media and MTT are removed and MTT crystals are solubilized in 100% DMSO for final OD read.

H460 Cell Line = test: Cytotoxicity of GGPTase inhibitors in human cells, H460 (Sulforhodamine B); type: cell-based; conditions: NCI-H460, 72 h, read-out: IC50 (nM) H460
Method: as §1, §2, §3, §4
(E) 1. H460 Cells are fixed in TCA, rinsed, stained with Sulforhodamine B stain, and the stain is solubilized for a final OD read.

IC50 (Hu FT) [nM]	IC50 (C. albicans GGPTase; Table 3 Piperidine Analogs) [nM]	IC50 (human GGTase; Table 3 Piperidine Analogs) [nM]	SMILES	further results
> 1000	< 100	> 1000	N[C@@H](CS)C(=O)N1CCC(C(=O)NCc2cccc(-c3ccccc3)c2)(c2ccccc2)CC1 [Compound 53e]	–
> 1000	< 100	> 1000	N[C@@H](CS)C(=O)N1CCC(C(=O)NCCN2CCCC2)(c2ccccc2)CC1 [Compound 53g]	–
> 1000	< 100	> 1000	N[C@@H](CS)C(=O)N1CCC(C(=O)NCc2nc3ccccc3[nH]2)(c2ccccc2)CC1 [Compound 53h]	–
> 1000	< 100	< 100	CC(C)C[C@H](NC(=O)C1(c2ccccc2)CCN(C(=O)[C@@H](N)CS)CC1)C(N)=O [Compound 53i]	–
> 1000	< 100	> 1000	N[C@@H](CS)C(=O)N1CCC(C(=O)NCCCn2ccnc2)(c2ccccc2)CC1 [Compound 53j]	–
> 1000	< 100	> 1000	N#CC1CCC(CNC(=O)C2(c3ccccc3)CCN(C(=O)[C@@H](N)CS)CC2)CC1 (stereo partly shown) [Compound 53n]	–
> 1000	< 100	< 1000	N[C@@H](CS)C(=O)N1CCC(C(=O)NCc2cccc(OC(F)(F)F)c2)(c2ccccc2)CC1 [Compound 53p]	–
> 1000	< 100	> 1000	N[C@@H](CS)C(=O)N1CCC(C(=O)NCc2ccc3c(c2)OCO3)(c2ccccc2)CC1 [Compound 53q]	–
> 1000	< 100	> 1000	N[C@@H](CS)C(=O)N1CCC(C(=O)NCc2ccc(F)cc2F)(c2ccccc2)CC1 [Compound 53r]	–
> 1000	< 100	> 500	COc1ccccc1CNC(=O)C1(c2ccccc2)CCN(C(=O)[C@@H](N)CS)CC1 [Compound 53u]	–
> 1000	< 100	> 500	N[C@@H](CS)C(=O)N1CCC(C(=O)NCc2cccc3ccccc23)(c2ccccc2)CC1 [Compound 53w]	–
–	–	–	NC[C@H](NC(=O)[C@@H](N)CS)C(=O)NCc1cccc2ccccc12 [Compound 89a]	MIC (C. albicans): > 200 µg/mL; MIC (μg/mL) C alb (C. albicans): >200 µg/mL; IC50 (C. albicans GGPTase; Table 1): < 1000 nM; IC50 (C. albicans GGPTase; Table 1 Peptide Analogs): < 1000 nM; IC50 (human GGTase; Table 1): > 1000 nM; IC50 (human GGTase; Table 1 Peptide Analogs): > 1000 nM; IC50 (Cryp GG; Table 1): > 1000 nM; IC50 (Cryp GG; Table 1 Peptide Analogs): > 1000 nM
–	–	–	NC[C@H](NC(=O)[C@@H](N)CS)C(=O)NCc1cccc(-c2ccccc2)c1 [Compound 89b]	MIC (C. albicans): > 200 µg/mL; MIC (μg/mL) C alb (C. albicans): >200 µg/mL; IC50 (C. albicans GGPTase; Table 1): < 500 nM; IC50 (C. albicans GGPTase; Table 1 Peptide Analogs): < 500 nM; IC50 (human GGTase; Table 1): > 1000 nM; IC50 (human GGTase; Table 1 Peptide Analogs): > 1000 nM
–	–	–	NC[C@H](NC(=O)[C@@H](N)CS)C(=O)N1CCC(C(=O)NCc2ccncc2)(c2ccccc2)CC1 [Compound 89c]	IC50 (Asp GG; Table 1): > 1000 nM; IC50 (Asp GG; Table 1 Peptide Analogs): > 1000 nM; IC50 (C. albicans GGPTase; Table 1): < 1000 nM; IC50 (C. albicans GGPTase; Table 1 Peptide Analogs): < 1000 nM; IC50 (human GGTase; Table 1): > 1000 nM; IC50 (human GGTase; Table 1 Peptide Analogs): > 1000 nM; IC50 (Cryp GG; Table 1): > 1000 nM; IC50 (Cryp GG; Table 1 Peptide Analogs): > 1000 nM

SMILES	IC50 (Hu FT) [nM]	IC50 (C. albicans GGPTase; Table 3 Piperidine Analogs) [nM]	IC50 (human GGTase; Table 3 Piperidine Analogs) [nM]	further results
N[C@@H](CS)C(=O)N1CCC(C(=O)NCCCN2CCOCC2)(c2ccccc2)CC1 [Compound 53f]	> 1000	< 500	> 1000	IC50 (Asp GG; Table 3 Piperidine Analogs): > 1000 nM; IC50 (Cryp GG; Table 3 Piperidine Analogs): > 1000 nM
N[C@@H](CS)C(=O)N1CCC(C(=O)NCc2ccncc2)(c2ccccc2)CC1 [Compound 53k]	> 1000	< 10	> 1000	IC50 (Asp GG; Table 3 Piperidine Analogs): > 1000 nM; IC50 (Cryp GG; Table 3 Piperidine Analogs): > 1000 nM
N[C@@H](CS)C(=O)N1CCC(C(=O)NCC(=O)Nc2ccc3ccccc3c2)(c2ccccc2)CC1 [Compound 53o]	–	< 1000	> 1000	IC50 (Asp GG; Table 3 Piperidine Analogs): > 1000 nM; IC50 (Cryp GG; Table 3 Piperidine Analogs): > 1000 nM
N[C@@H](CS)C(=O)N1CCC(C(=O)NC2c3ccccc3-c3ccccc32)(c2ccccc2)CC1 [Compound 53z]	> 1000	< 100	> 1000	IC50 (Asp GG; Table 3 Piperidine Analogs): > 1000 nM; IC50 (Cryp GG; Table 3 Piperidine Analogs): > 1000 nM
C[C@H](N)C(=O)N[C@@H](CS)C(=O)N1CCC(C(=O)NCc2ccncc2)(c2ccccc2)CC1 [Compound 96a]	–	> 1000	> 1000	IC50 (IMR90 Cell Line): > 1000 nM; IC50 (H460 Cell Line): > 1000 nM
C[C@H](N)C(=O)N[C@@H](C)C(=O)N[C@@H](CS)C(=O)N1CCC(C(=O)NCc2ccncc2)(c2ccccc2)CC1 [Compound 96b]	–	< 1000	> 1000	IC50 (IMR90 Cell Line): > 1000 nM; IC50 (H460 Cell Line): > 1000 nM
